Measurements reported in patent US12065443B2, “Compounds and pharmaceutical compositions thereof for the treatment of diseases” (priority 2017, dated 2024).
pIC50: −log10 of the molar value.

Tests used:
Experiment in all cases: biochemical
SIK1 = molecular target: T1, SIK1 (Homo sapiens, UniProt P57059); settings: 33P radioactive SIK kinase assay, AMARA peptide, 10 μM ATP; read-out: SIK1 IC50
T1 construct: purchased Carna Biosciences 02-131
Method: (§1) The principle of the ^33P radioactive kinase assay consists in measuring the incorporated ^33P into the substrate AMARA peptide when phosphorylated by SIK1, SIK2 or SIK3 using [^33P]-g-ATP, which correlates with kinase activity.
(§2) 1% DMSO and 10 μM staurosporine final concentrations are used as negative and positive controls.
(§3) 11 μL of enzyme-substrate mixture is added on the assay plates. The reactions are started by adding 9 μL ATP mixture, consisting of non-labeled and ^33P-labeled ATP, on the assay plates.
(§4) The reactions are stopped by adding 25 μL phosphoric acid (150 mM) to the reactions.
(§5) After harvesting the kinase reactions, the filter plates are washed 6 times with phosphoric acid (75 mM). […] The top of the plates are sealed with TopSeal-A. Read-out is performed with a TopCount instrument (PerkinElmer Inc.).

SIK2 = molecular target: T2, SIK2 (Homo sapiens, UniProt Q9H0K1); settings: 33P radioactive SIK kinase assay, AMARA peptide, 10 μM ATP
T2 construct: purchased ThermoFisher Scientific PV4792
Method: as §1, §2, §3, §4, §5

SIK3 = molecular target: T3, SIK3 (Homo sapiens, UniProt Q9Y2K2)
T3 construct: purchased SignalChem S12-11G-100
Method: as §1, §2, §3, §4, §5

T1 sequence (P57059 whole entry): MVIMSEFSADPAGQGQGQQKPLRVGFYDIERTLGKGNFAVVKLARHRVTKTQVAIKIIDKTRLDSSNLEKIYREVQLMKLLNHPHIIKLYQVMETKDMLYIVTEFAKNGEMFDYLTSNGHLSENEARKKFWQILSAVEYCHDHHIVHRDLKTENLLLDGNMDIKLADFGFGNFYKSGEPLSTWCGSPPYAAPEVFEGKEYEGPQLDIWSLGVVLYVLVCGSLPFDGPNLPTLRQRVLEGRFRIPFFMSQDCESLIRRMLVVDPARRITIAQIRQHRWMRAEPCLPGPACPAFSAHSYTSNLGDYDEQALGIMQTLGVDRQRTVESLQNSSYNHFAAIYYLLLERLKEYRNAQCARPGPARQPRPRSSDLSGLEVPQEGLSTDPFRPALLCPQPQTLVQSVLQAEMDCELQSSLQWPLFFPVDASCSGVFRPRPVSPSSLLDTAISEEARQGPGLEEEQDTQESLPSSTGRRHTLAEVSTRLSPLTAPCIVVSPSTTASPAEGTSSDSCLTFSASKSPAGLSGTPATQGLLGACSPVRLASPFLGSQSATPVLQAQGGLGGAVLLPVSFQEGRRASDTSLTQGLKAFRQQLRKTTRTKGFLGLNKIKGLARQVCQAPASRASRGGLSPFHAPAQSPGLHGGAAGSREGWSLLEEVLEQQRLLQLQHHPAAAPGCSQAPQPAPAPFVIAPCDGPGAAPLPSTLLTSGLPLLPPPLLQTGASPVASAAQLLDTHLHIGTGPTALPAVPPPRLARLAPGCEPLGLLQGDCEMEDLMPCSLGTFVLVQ
T2 sequence (Q9H0K1 whole entry): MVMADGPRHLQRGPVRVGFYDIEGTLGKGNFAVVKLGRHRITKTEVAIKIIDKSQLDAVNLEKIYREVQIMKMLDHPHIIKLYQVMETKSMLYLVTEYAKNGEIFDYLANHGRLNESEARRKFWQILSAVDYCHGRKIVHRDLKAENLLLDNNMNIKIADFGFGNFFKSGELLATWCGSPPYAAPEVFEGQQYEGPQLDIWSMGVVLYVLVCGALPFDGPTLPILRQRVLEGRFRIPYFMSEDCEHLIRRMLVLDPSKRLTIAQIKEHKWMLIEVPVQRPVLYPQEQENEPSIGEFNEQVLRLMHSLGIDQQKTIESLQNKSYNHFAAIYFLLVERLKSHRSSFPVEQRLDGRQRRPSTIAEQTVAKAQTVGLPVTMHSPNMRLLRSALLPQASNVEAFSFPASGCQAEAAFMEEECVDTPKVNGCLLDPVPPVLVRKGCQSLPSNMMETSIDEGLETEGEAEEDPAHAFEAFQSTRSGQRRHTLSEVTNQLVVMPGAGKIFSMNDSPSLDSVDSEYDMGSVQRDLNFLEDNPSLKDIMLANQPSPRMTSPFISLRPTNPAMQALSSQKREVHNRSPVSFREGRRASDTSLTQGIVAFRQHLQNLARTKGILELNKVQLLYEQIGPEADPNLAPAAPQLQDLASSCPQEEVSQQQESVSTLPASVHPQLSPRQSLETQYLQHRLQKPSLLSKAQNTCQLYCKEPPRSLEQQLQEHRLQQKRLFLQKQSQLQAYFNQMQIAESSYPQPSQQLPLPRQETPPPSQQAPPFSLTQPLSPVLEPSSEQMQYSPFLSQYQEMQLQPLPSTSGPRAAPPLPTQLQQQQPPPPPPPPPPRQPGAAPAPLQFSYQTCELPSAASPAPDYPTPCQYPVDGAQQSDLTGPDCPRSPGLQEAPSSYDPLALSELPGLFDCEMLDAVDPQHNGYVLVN
T3 sequence (Q9Y2K2 whole entry): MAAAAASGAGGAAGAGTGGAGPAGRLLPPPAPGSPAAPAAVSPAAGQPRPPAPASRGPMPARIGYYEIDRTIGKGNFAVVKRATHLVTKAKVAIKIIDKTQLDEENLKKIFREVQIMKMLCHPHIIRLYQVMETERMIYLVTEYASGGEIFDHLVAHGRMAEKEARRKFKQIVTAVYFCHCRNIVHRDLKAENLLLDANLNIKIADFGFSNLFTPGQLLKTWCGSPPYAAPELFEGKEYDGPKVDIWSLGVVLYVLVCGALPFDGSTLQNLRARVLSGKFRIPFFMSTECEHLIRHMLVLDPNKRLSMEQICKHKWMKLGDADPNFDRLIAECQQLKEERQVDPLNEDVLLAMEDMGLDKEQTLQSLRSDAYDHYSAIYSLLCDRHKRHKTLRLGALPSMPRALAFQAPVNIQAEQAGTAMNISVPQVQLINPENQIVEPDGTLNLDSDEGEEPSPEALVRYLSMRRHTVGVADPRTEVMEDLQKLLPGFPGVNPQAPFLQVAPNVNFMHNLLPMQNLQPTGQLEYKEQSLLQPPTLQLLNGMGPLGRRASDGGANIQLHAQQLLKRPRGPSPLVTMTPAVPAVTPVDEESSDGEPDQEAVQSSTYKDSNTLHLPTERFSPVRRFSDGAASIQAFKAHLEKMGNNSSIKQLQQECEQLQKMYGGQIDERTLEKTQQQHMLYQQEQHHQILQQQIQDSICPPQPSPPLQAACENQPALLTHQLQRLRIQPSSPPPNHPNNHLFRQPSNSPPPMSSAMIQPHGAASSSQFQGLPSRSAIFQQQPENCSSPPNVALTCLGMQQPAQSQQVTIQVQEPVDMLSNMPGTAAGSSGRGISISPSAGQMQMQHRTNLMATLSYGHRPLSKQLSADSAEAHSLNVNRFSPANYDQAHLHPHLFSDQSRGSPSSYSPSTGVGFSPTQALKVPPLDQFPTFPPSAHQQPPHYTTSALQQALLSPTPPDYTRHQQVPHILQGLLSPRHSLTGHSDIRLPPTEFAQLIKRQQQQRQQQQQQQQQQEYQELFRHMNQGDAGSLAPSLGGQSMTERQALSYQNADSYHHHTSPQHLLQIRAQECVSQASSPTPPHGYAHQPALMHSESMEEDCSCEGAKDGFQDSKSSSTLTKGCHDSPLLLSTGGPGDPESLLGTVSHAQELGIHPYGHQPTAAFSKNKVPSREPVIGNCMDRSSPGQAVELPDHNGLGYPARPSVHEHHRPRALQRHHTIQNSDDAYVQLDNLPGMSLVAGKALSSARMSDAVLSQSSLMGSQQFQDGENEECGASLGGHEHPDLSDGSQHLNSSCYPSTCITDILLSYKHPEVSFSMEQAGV

| Compound | pIC50 (SIK1) | pIC50 (SIK2) | pIC50 (SIK3) |
| --- | --- | --- | --- |
| COc1cc(-n2cnc3cc(-c4cncnc4)ccc32)cc(OC)c1C(=O)NCC(F)(F)F [compound 104, 2,6-dimethoxy-4-(5-pyrimidin-5-ylbenzimidazol-1-yl)-N-(2,2,2-trifluoroethyl)benzamide] | < 6.30 | 6.30 to 7.00 | 6.30 to 7.00 |
| COc1cc(-n2cnc3cc(-c4cnn(C)c4)ccc32)cc(OC)c1C(=O)NCCCO [compound 63, N-(3-hydroxypropyl)-2,6-dimethoxy-4-[5-(1-methylpyrazol-4-yl)benzimidazol-1-yl]benzamide] | 6.30 to 7.00 | 7.00 to 8.00 | 7.00 to 8.00 |
| COc1cc(-n2cnc3cc(-c4cnn(C)c4)ccc32)cc(OC)c1C(=O)N1C(C)CC1(C)C (stereo not drawn) [compound 189, [2,6-dimethoxy-4-[5-(1-methylpyrazol-4-yl)benzimidazol-1-yl]phenyl]-(2,2,4-trimethylazetidin-1-yl)methanone] | < 6.30 | < 6.30 | < 6.30 |
| COc1cc(-c2cnc3cc(-c4cnn(C)c4)ccn23)cc(OC)c1C(=O)N1CCC(F)(F)CC1 [compound 212, (4,4-difluoro-1-piperidyl)-[2,6-dimethoxy-4-[7-(1-methylpyrazol-4-yl)imidazo[1,2-a]pyridin-3-yl]phenyl]methanone] | 6.30 to 7.00 | 7.00 to 8.00 | 6.30 to 7.00 |
| COc1cc(-n2cnc3cc(-c4cnn(C)c4)ccc32)cc(OC)c1C(=O)N[C@@H]1CCC[C@H]1O [compound 143, N-[(1R,2R)-2-hydroxycyclopentyl]-2,6-dimethoxy-4-[5-(1-methylpyrazol-4-yl)benzimidazol-1-yl]benzamide] | 6.30 to 7.00 | 7.00 to 8.00 | 7.00 to 8.00 |
| COc1cc(-n2cnc3cc(-c4ccc(C#N)nc4)ccc32)cc(OC)c1C(=O)NCC(F)(F)F [compound 36, 4-[5-(6-cyano-3-pyridyl)benzimidazol-1-yl]-2,6-dimethoxy-N-(2,2,2-trifluoroethyl)benzamide] | 6.30 to 7.00 | 7.00 to 8.00 | 7.00 to 8.00 |
| COc1cc(-n2cnc3cc(-c4nnc(C)n4C)ccc32)cc(OC)c1C(=O)NCC(F)(F)F [Cpd 168, 4-[5-(4,5-dimethyl-1,2,4-triazol-3-yl)benzimidazol-1-yl]-2,6-dimethoxy-N-(2,2,2-trifluoroethyl)benzamide] | < 6.30 | < 6.30 | < 6.30 |
| COc1cc(-n2cnc3cc(-c4cnn(C)c4)ccc32)cc(OC)c1C(=O)N1CC(CO)C1 [compound 183, [2,6-dimethoxy-4-[5-(1-methylpyrazol-4-yl)benzimidazol-1-yl]phenyl]-[3-(hydroxymethyl)azetidin-1-yl]methanone] | 6.30 to 7.00 | 6.30 to 7.00 | 6.30 to 7.00 |
| COc1cc(-n2cnc3cc(-c4cnn(C)c4)ccc32)cc(OC)c1C(=O)N1CC(C2CCOCC2)C1 [compound 191, [2,6-dimethoxy-4-[5-(1-methylpyrazol-4-yl)benzimidazol-1-yl]phenyl]-(3-tetrahydropyran-4-ylazetidin-1-yl)methanone] | 6.30 to 7.00 | 6.30 to 7.00 | 6.30 to 7.00 |
| COc1cc(-n2cnc3cc(-n4ccc(C)n4)ccc32)cc(OC)c1C(=O)NCC(F)(F)F [Cpd 154, 2,6-dimethoxy-4-[5-(3-methylpyrazol-1-yl)benzimidazol-1-yl]-N-(2,2,2-trifluoroethyl)benzamide] | 6.30 to 7.00 | 6.30 to 7.00 | 6.30 to 7.00 |
| COc1cc(-n2cnc3cc(-c4cnn(C)c4)ccc32)cc(OC)c1C(=O)N(C)CC#N [compound 74, N-(cyanomethyl)-2,6-dimethoxy-N-methyl-4-[5-(1-methylpyrazol-4-yl)benzimidazol-1-yl]benzamide] | 6.30 to 7.00 | 6.30 to 7.00 | 7.00 to 8.00 |
| COc1cc(-c2cnc3cc(-c4cccnc4OC)ccn23)cc(OC)c1C(=O)NCC(F)(F)F [compound 250, 2,6-dimethoxy-4-[7-(2-methoxy-3-pyridyl)imidazo[1,2-a]pyridin-3-yl]-N-(2,2,2-trifluoroethyl)benzamide] | 6.30 to 7.00 | 7.00 to 8.00 | 7.00 to 8.00 |
| COc1cc(-n2cnc3cc(-c4nnc(C)o4)ccc32)cc(OC)c1C(=O)NCC(F)(F)F [Cpd 167, 2,6-dimethoxy-4-[5-(5-methyl-1,3,4-oxadiazol-2-yl)benzimidazol-1-yl]-N-(2,2,2-trifluoroethyl)benzamide] | < 6.30 | < 6.30 | 6.30 to 7.00 |
| COc1cc(-n2cnc3cc(-c4cnn(C)c4)ccc32)cc(OC)c1C(=O)NCc1ccccn1 [compound 62, 2,6-dimethoxy-4-[5-(1-methylpyrazol-4-yl)benzimidazol-1-yl]-N-(2-pyridylmethyl)benzamide] | 6.30 to 7.00 | 6.30 to 7.00 | 6.30 to 7.00 |
| CCNC(=O)c1c(OC)cc(-n2cnc3cc(-c4noc(C)n4)ccc32)cc1OC(F)F [compound 136, 2-(difluoromethoxy)-N-ethyl-6-methoxy-4-[5-(5-methyl-l,2,4-oxadiazol-3-yl)benzimidazol-1-yl]benzamide] | < 6.30 | < 6.30 | < 6.30 |
| COc1cc(-n2cnc3cc(-n4nc(C)cc4C)ccc32)cc(OC)c1C(=O)NCC(F)(F)F [Cpd 165, 4-[5-(3,5-dimethylpyrazol-1-yl)benzimidazol-1-yl]-2,6-dimethoxy-N-(2,2,2-trifluoroethyl)benzamide] | < 6.30 | < 6.30 | < 6.30 |

Next, values leading:

| pIC50 (SIK1) | pIC50 (SIK2) | pIC50 (SIK3) | Compound |
| --- | --- | --- | --- |
| 6.30 to 7.00 | 6.30 to 7.00 | 6.30 to 7.00 | COc1cc(-n2cnc3cc(-c4cnn(C)c4)ccc32)cc(OC)c1C(=O)Nc1cn(C)cn1 [compound 82, 2,6-dimethoxy-N-(1-methylimidazol-4-yl)-4-[5-(1-methylpyrazol-4-yl)benzimidazol-1-yl]benzamide] |
| 6.30 to 7.00 | 6.30 to 7.00 | 6.30 to 7.00 | COc1cc(-n2cnc3cc(-c4cnn(C)c4)ccc32)cc(OC)c1C(=O)N1CC2(C1)CS(=O)(=O)C2 [compound 195, [2,6-dimethoxy-4-[5-(1-methylpyrazol-4-yl)benzimidazol-1-yl]phenyl]-(2,2-dioxo-2λ^6-thia-6-azaspiro[3.3]heptan-6-yl)methanone] |
| 6.30 to 7.00 | 7.00 to 8.00 | 7.00 to 8.00 | COc1cc(-n2cnc3cc(-c4cnn(C)c4)ccc32)cc(OC)c1C(=O)NCCS(C)(=O)=O [compound 65, 2,6-dimethoxy-4-[5-(1-methylpyrazol-4-yl)benzimidazol-1-yl)-N-(2-methylsulfonylethyl)benzamide] |
| 6.30 to 7.00 | 6.30 to 7.00 | 6.30 to 7.00 | COc1cc(-n2cnc3cc(-c4cnn(C)c4)ccc32)cc(OC(C)C)c1C(=O)NC1CC1 [Cpd 119, N-cyclopropyl-2-isopropoxy-6-methoxy-4-[5-(1-methylpyrazol-4-yl)benzimidazol-1-yl]benzamide] |
| 6.30 to 7.00 | 6.30 to 7.00 | 6.30 to 7.00 | COc1cc(-n2cnc3cc(-c4cnn(C)c4)ccc32)cc(OC)c1C(=O)Nc1ccn(C)n1 [compound 81, 2,6-dimethoxy-N-(1-methylpyrazol-3-yl)-4-[5-(1-methylpyrazol-4-yl)benzimidazol-1-yl]benzamide] |
| 6.30 to 7.00 | 6.30 to 7.00 | < 6.30 | COc1cc(-n2cnc3cc(-c4cnn(C)c4)ccc32)cc(OC)c1C(=O)N[C@H]1CCCC[C@@H]1O [compound 164] |
| 7.00 to 8.00 | 7.00 to 8.00 | 7.00 to 8.00 | COc1cc(-n2cnc3cc(-c4cnn(C)c4)ccc32)cc(OC)c1C(=O)NC(C)C [compound 115, N-isopropyl-2,6-dimethoxy-4-[5-(1-methylpyrazol-4-yl)benzimidazol-1-yl]benzamide] |
| 7.00 to 8.00 | 7.00 to 8.00 | 7.00 to 8.00 | COc1cc(-c2cnc3cc(-c4cnn(C)c4)ccn23)cc(OC)c1C(=O)N1CCC(F)(F)C1 [compound 211, (3,3-difluoropyrrolidin-1-yl)-[2,6-dimethoxy-4-[7-(1-methylpyrazol-4-yl)imidazo[1,2-a]pyridin-3-yl]phenyl]methanone] |
| 7.00 to 8.00 | 6.30 to 7.00 | 6.30 to 7.00 | COc1cc(-n2cnc3cc(-c4cnn(C)c4)ccc32)cc(OC)c1C(=O)N1CC(c2ccccc2)C1 [compound 180, [2,6-dimethoxy-4-[5-(1-methylpyrazol-4-yl)benzimidazol-1-yl]phenyl]-(3-phenylazrtidin-1-yl)methanone] |
| 7.00 to 8.00 | 8.00 to 11.00 | 8.00 to 11.00 | COc1cc(-n2cnc3cc(-c4cnn(C)c4)ccc32)cc(OC)c1C(=O)NCC#N [compound 75] |
| 7.00 to 8.00 | 7.00 to 8.00 | 7.00 to 8.00 | COc1cc(-n2cnc3cc(-c4cnn(C)c4)ccc32)cc(OC)c1C(=O)Nc1ccon1 [compound 72, N-isoxazol-3-yl-2,6-dimethoxy-4-[5-(1-methylpyrazol-4-yl)benzimidazol-1-yl]benzamide] |
| 7.00 to 8.00 | 7.00 to 8.00 | 8.00 to 11.00 | COc1cc(-n2cnc3cc(-c4cn[nH]c4)ccc32)cc(OC)c1C(=O)NCC(F)(F)F [compound 47, 2,6-dimethoxy-4-[5-(1H-pyrazol-4-yl)benzimidazol-1-yl]-N-(2,2,2-trifluoroethyl)benzamide] |
| 7.00 to 8.00 | 7.00 to 8.00 | 7.00 to 8.00 | COc1cc(-n2cnc3cc(-c4cnn(C)c4)ccc32)cc(OC)c1C(=O)NC1CCC1 [compound 77, N-cyclobutyl-2,6-dimethoxy-4-[5-(1-methylpyrazol-4-yl)benzimidazol-1-yl]benzamide] |
